From US20220184072A1 (priority 2019, published 2022)

What was measured:
[1] = morphine 30 mg/kg orally twice per day
[2] = tested on: TH (tyrosine hydroxylase); assay: CNS phosphoprotein profile, TH; type: in vivo; settings: mice nucleus accumbens; Example 1 3 mg/kg at 30 or 60 minutes; haloperidol 2 mg/kg
Method: A comprehensive molecular phosphorylation study is also carried out to examine the central nervous system (CNS) profile of the compound of Example 1. The extent of protein phosphorylation for selected key central nervous system proteins is measured in mice nucleus accumbens.
Mice were killed 30 minutes to 2 hours post-injection by focused microwave cranial irradiation, which preserves brain phosphoprotein as it exists at the time of death. Nucleus accumbens was then dissected from each mouse brain, sliced and frozen in liquid nitrogen. Samples were further prepared for phosphoprotein analysis via SDS-PAGE electrophoresis followed by phosphoprotein-specific immunoblotting, as described in Zhu H, et al., Brain Res. 2010 Jun. 25; 1342:11-23. Phosphorylation at each site was quantified, normalized to total levels of the protein (non-phosphorylated), and expressed as percent of the level of phosphorylation in vehicle-treated control mice.

Compound	tolerance and dependence [1]	increase in TH phosphorylation at Ser40 [2]
CN1CC[C@]23c4c5ccc(O)c4O[C@H]2[C@@H](O)C=C[C@H]3[C@H]1C5 [Morphine]	clear signs of tolerance and dependence	
O=C(CCCN1CCC(O)(c2ccc(Cl)cc2)CC1)c1ccc(F)cc1 [haloperidol]		greater than 400%
Cc1nc2n(c(=O)c1CCN1CCC(c3noc4cc(F)ccc34)CC1)CCCC2 [risperidone]		greater than 500%
